The results in this text go back to patent publication US9801872B2, “Pyridinyl and fused pyridinyl triazolone derivatives” (Takeda Pharmaceutical Company Limited, priority 2013, dated 2017).

Sequence of human BTK (Q06187 382-659): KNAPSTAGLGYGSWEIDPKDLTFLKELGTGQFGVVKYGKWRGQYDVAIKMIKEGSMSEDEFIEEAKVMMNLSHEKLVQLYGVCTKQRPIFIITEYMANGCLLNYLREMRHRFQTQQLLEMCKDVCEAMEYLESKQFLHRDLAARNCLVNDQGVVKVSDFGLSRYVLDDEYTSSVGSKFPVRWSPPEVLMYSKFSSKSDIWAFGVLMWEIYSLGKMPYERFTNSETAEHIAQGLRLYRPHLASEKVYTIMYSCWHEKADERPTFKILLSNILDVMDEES

The first test concerns the target human BTK (Homo sapiens (Human), UniProt Q06187). Nature of the test: BTK inhibition: BTK-mediated phosphorylation of FAM-labeled substrate 5-FAM-[…]-NH2 (Caliper LC-3000). Particulars: read-out: BTK Inhibition (pIC50) (converted). Format: biochemical. From the text:
The activity of compounds as BTK inhibitors may be determined by a variety of methods, including in vitro and in vivo methods.
This construct engineers an in-frame translational fusion with the Glutathione-S-Transferase (GST) protein for use in affinity purification. The fusion protein derived from this construct contains a protease recognition sequence to liberate the BTK from the GST affinity tag. High-titer baculoviral stocks, generated using the Bac-to-Bac® system (Invitrogen), are used to express the recombinant protein in Spodoptera frugiperda Sf9 cells in 10 L Wave bags. Recombinant proteins are isolated from cellular extracts by passage over Glutathione Sepharose 4B (GE Healthcare) and the BTK moiety is released from the GST affinity tag by treatment with PreScission protease. The BTK recombinant protein is further purified by size exclusion chromatography (HiLoad 16/60 Superdex 200, GE Healthcare) in a buffer containing 20 mM Hepes (pH 7.4), 50 mM NaCl, 10 mM MgCl2, 0.25 mM TCEP and 0.1 mM EDTA. The purity of the fractions is assessed by SDS PAGE and the peak protein fractions are pooled and concentrated using Amicon Ultra-15 Centrifugal Filter Devices (Millipore).
The inhibitory properties of compounds relative to BTK is determined using a black 384-well-plate format in a buffer which contains 50 mM Hepes, 10 mM NaCl, 10 mM MgCl2, 0.2 mM EDTA, 0.01% Brij35®, 1 mM DTT, and 0.1 mg/mL BSA at pH 7.3. The test compound is prepared in DMSO using 2-fold serial dilutions for 11 data points, which are added to the buffer so that each dilution contains 3% DMSO. […] The reaction mixtures are incubated at room temperature for 60 minutes and then quenched by adding 25 μL of 50 mM EDTA. To quantify the fluorescent-labeled substrate and product following reaction, the test plate is loaded on a Caliper LC-3000, which measures percent of conversion by microfluidic-based separation.
The compounds were tested in accordance with the assay described on page 42 of the specification.
On to `C=CC(=O)N1C[C@H](Oc2nc(-c3n[nH]c(=O)[nH]3)cc3ccccc23)[C@@H](C)C1` (racemic) [Example 19, 3-(1-(((3R,4S)-1-acryloyl-4-methylpyrrolidin-3-yl)oxy)isoquinolin-3-yl)-1H-1,2,4-triazol-5(4H)-one and 3-(1-(((3S,4R)-1-acryloyl-4-methylpyrrolidin-3-yl)oxy)isoquinolin-3-yl)-1H-1,2,4-triazol-5(4H)-one (mixture of enantiomers)], for which the IC50 was under 6.31 nM.

Staying with this test, now noted: residues 382 to 659 of human BTK; 60 minutes at room temperature; pIC50 = -log(IC50), IC50 molar.
In the case of `C=C(C)C(=O)N1CC[C@@H](Oc2nc(-c3n[nH]c(=O)[nH]3)cc3ccccc23)C1` [Example 1, (R)-3-(1-((1-methacryloylpyrrolidin-3-yl)oxy)isoquinolin-3-yl)-1H-1,2,4-triazol-5(4H)-one], the “BTK Inhibition (pIC50)” value was determined as 6.7. Same read-out and setting: with `C=CC(=O)N1CC[C@@H](Oc2nc(-c3n[nH]c(=O)[nH]3)cc3ccccc23)C1` [Example 2, (R)-3-(1-((1-acryloylpyrrolidin-3-yl)oxy)isoquinolin-3-yl)-1H-1,2,4-triazol-5(4H)-one] the figure was 7.1; with `C/C=C/C(=O)N1CC[C@@H](Oc2nc(-c3n[nH]c(=O)[nH]3)cc3ccccc23)C1` [Example 3, (R,E)-3-(1-((1-(but-2-enoyl)pyrrolidin-3-yl)oxy)isoquinolin-3-yl)-1H-1,2,4-triazol-5(4H)-one], 6.5; with `C=CC(=O)NC1CCN(c2nc(-c3n[nH]c(=O)[nH]3)cc3ccccc23)C1` (centres unmarked) [Example 4, N-(1-(3-(5-oxo-4,5-dihydro-1H-1,2,4-triazol-3-yl)isoquinolin-1-yl)pyrrolidin-3-yl)acrylamide], over 8.1. Same read-out and setting: the result for `C=CC(=O)N1CC[C@H](Oc2nc(-c3n[nH]c(=O)[nH]3)cc3ccccc23)C1` [Example 5, (S)-3-(1-((1-acryloylpyrrolidin-3-yl)oxy)isoquinolin-3-yl)-1H-1,2,4-triazol-5(4H)-one] reads over 8.7; that for `C=CC(=O)N1CCC[C@H]1CNc1nc(-c2n[nH]c(=O)[nH]2)cc2ccccc12` [Example 6, (S)-3-(1-(((1-acryloylpyrrolidin-2-yl)methyl)amino)isoquinolin-3-yl)-1H-1,2,4-triazol-5(4H)-one], 8.0; that for `C=CC(=O)N1CCC[C@H]1COc1nc(-c2n[nH]c(=O)[nH]2)cc2ccccc12` [Example 7, (S)-3-(1-((1-acryloylpyrrolidin-2-yl)methoxy)isoquinolin-3-yl)-1H-1,2,4-triazol-5(4H)-one], 8.0.

As for `C=CC(=O)N1CC[C@H](Nc2nc(-c3n[nH]c(=O)[nH]3)cc3ccccc23)C1` [Example 8, (S)-3-(1-((1-acryloylpyrrolidin-3-yl)amino)isoquinolin-3-yl)-1H-1,2,4-triazol-5(4H)-one], the “BTK Inhibition (pIC50)” value is reported as over 8.6. In the case of `C=CC(=O)N1CCC[C@@H]1COc1nc(-c2n[nH]c(=O)[nH]2)cc2ccccc12` [Example 9, (R)-3-(1-((1-acryloylpyrrolidin-2-yl)methoxy)isoquinolin-3-yl)-1H-1,2,4-triazol-5(4H)-one], the “BTK Inhibition (pIC50)” value was over 7.9. Consider `C=C(C)C(=O)N1CC[C@H](Nc2nc(-c3n[nH]c(=O)[nH]3)cc3ccccc23)C1` [Example 10, (S)-3-(1-((1-methacryloylpyrrolidin-3-yl)amino)isoquinolin-3-yl)-1H-1,2,4-triazol-5(4H)-one], for which the “BTK Inhibition (pIC50)” value is reported as 7.5. Consider `C=CC(=O)N1CC[C@H](N(C)c2nc(-c3n[nH]c(=O)[nH]3)cc3ccccc23)C1` [Example 11, (S)-3-(1-((1-acryloylpyrrolidin-3-yl)(methyl)amino)isoquinolin-3-yl)-1H-1,2,4-triazol-5(4H)-one], for which the “BTK Inhibition (pIC50)” value is given as 8.5. On the same count and under the same terms, with `C=C(C)C(=O)N1CC[C@H](Oc2nc(-c3n[nH]c(=O)[nH]3)cc3ccccc23)C1` [Example 12, (S)-3-(1-((1-methacryloylpyrrolidin-3-yl)oxy)isoquinolin-3-yl)-1H-1,2,4-triazol-5(4H)-one] the figure was 6.9. As for `C=CC(=O)N1CC[C@H](OCc2nc(-c3n[nH]c(=O)[nH]3)cc3ccccc23)C1` [Example 13, (S)-3-(1-(((1-acryloylpyrrolidin-3-yl)oxy)methyl)isoquinolin-3-yl)-1H-1,2,4-triazol-5(4H)-one], the “BTK Inhibition (pIC50)” value was over 8.0. The same measure, in the same setting: the result for `C/C=C/C(=O)N1CC[C@H](Nc2nc(-c3n[nH]c(=O)[nH]3)cc3ccccc23)C1` [Example 15, (S,E)-3-(1-((1-(but-2-enoyl)pyrrolidin-3-yl)amino)isoquinolin-3-yl)-1H-1,2,4-triazol-5(4H)-one] reads 7.6; that for `C=CC(=O)N1CC[C@H](Oc2nc(-c3n[nH]c(=O)[nH]3)cc3cccnc23)C1` [Example 16, (S)-3-(8-((1-acryloylpyrrolidin-3-yl)oxy)-1,7-naphthyridin-6-yl)-1H-1,2,4-triazol-5(4H)-one], over 8.5; that for `C=CC(=O)N1CC[C@H](Nc2nc(-c3n[nH]c(=O)[nH]3)cc3cccnc23)C1` [Example 17, (S)-3-(8-((1-acryloylpyrrolidin-3-yl)amino)-1,7-naphthyridin-6-yl)-1H-1,2,4-triazol-5(4H)-one], over 8.6. On the same count and under the same terms, the result for `C=CC(=O)N1CC[C@H](Oc2nc(-c3n[nH]c(=O)[nH]3)cc3ccc(F)cc23)C1` [Example 18, (S)-3-(1-((1-acryloylpyrrolidin-3-yl)oxy)-7-fluoroisoquinolin-3-yl)-1H-1,2,4-triazol-5(4H)-one] reads over 8.2; that for `C=CC(=O)N1C[C@H](Oc2nc(-c3n[nH]c(=O)[nH]3)cc3ccccc23)[C@@H](C)C1` [Example 20, 3-(1-(((3R,4S)-1-acryloyl-4-methylpyrrolidin-3-yl)oxy)isoquinolin-3-yl)-1H-1,2,4-triazol-5(4H)-one], over 8.6; that for `C=CC(=O)N1C[C@@H](C)[C@H](Oc2nc(-c3n[nH]c(=O)[nH]3)cc3ccccc23)C1` [Example 21, 3-(1-(((3S,4R)-1-acryloyl-4-methylpyrrolidin-3-yl)oxy)isoquinolin-3-yl)-1H-1,2,4-triazol-5(4H)-one], 6.9. Still for that read-out and setting: with `C=CC(=O)N1CC[C@H](Nc2nc(-c3n[nH]c(=O)[nH]3)cc3cccc(F)c23)C1` [Example 23, (S)-3-(1-((1-acryloylpyrrolidin-3-yl)amino)-8-fluoroisoquinolin-3-yl)-1H-1,2,4-triazol-5(4H)-one] the figure was over 8.9; with `C=CC(=O)N1CC[C@H](Nc2nc(-c3n[nH]c(=O)[nH]3)cc3ccc(F)cc23)C1` [Example 25, (S)-3-(1-((1-acryloylpyrrolidin-3-yl)amino)-7-fluoroisoquinolin-3-yl)-1H-1,2,4-triazol-5(4H)-one], over 8.6; with `C=CC(=O)N1CC[C@H](Nc2nc(-c3n[nH]c(=O)[nH]3)cc3ccc(Cl)cc23)C1` [Example 26, (S)-3-(1-((1-acryloylpyrrolidin-3-yl)amino)-7-chloroisoquinolin-3-yl)-1H-1,2,4-triazol-5 (4H)-one], over 8.6. `C=CC(=O)N1CC[C@H](Oc2nc(-c3n[nH]c(=O)[nH]3)cc3cccc(Cl)c23)C1` [Example 27, (S)-3-(1-((1-acryloylpyrrolidin-3-yl)oxy)-8-chloroisoquinolin-3-yl) -1H-1,2,4-triazol-5(4H)-one]: the “BTK Inhibition (pIC50)” value is listed as over 8.9.

On to `C=CC(=O)N1CC[C@H](Nc2nc(-c3n[nH]c(=O)[nH]3)cc3cccc(Cl)c23)C1` [Example 28, (S)-3-(1-((1-acryloylpyrrolidin-3-yl)amino)-8-chloroisoquinolin-3-yl)-1H-1,2,4-triazol-5(4H)-one], for which the “BTK Inhibition (pIC50)” value is reported as over 8.6. On to `C=CC(=O)N1CC[C@H](Nc2nc(-c3n[nH]c(=O)[nH]3)cc3cccc(OC)c23)C1` [Example 29, (S)-3-(1-((1-acryloylpyrrolidin-3-yl)amino)-8-methoxyisoquinolin-3-yl)-1H-1,2,4-triazol-5(4H)-one], for which the “BTK Inhibition (pIC50)” value was over 8.6.

For `C=CC(=O)N1CC[C@H](Oc2cc(C)cc(-c3n[nH]c(=O)[nH]3)n2)C1` [Example 30, (S)-3-(6-((1-acryloylpyrrolidin-3-yl)oxy)-4-methylpyridin-2-yl)-1H-1,2,4-triazol-5(4H)-one], the “BTK Inhibition (pIC50)” value was over 8.6. Still for that read-out and setting: the result for `C=CC(=O)N1CC[C@H](Oc2cccc(-c3n[nH]c(=O)[nH]3)n2)C1` [Example 31, (S)-3-(6-((1-acryloylpyrrolidin-3-yl)oxy)pyridin-2-yl)-1H-1,2,4-triazol-5(4H)-one] reads 7.2.

Take `C=CC(=O)N1CC[C@H](Oc2nc(-c3n[nH]c(=O)[nH]3)ccc2C)C1` [Example 32, (S)-3-(6-((1-acryloylpyrrolidin-3-yl)oxy)-5-methylpyridin-2-yl)-1H-1,2,4-triazol-5(4H)-one]: the “BTK Inhibition (pIC50)” value amounted to 8.3.
